Patent US11369665B2, “Anti-inflammatory peptides and composition comprising the same” (GemVax & KAEL Co., Ltd., priority 2012, dated 2022)

Assays:
amyloid-β protein = target: T1, amyloid-β protein (Homo sapiens, UniProt P05067); assay: Amyloid-β aggregation; format: biochemical
T1 construct: co-treated with 1 μM amyloid beta protein and PEP 1 (0.1, 1 and 10 μM)
Text: In addition, we investigated the response of PEP-1 to the amyloid-β aggregation.

nitric oxide (NO) = assay: NO level analysis (Griess reagent) in LPS-stimulated Raw 264.7 cells; format: cell-based
Protocol: Raw 264.7 macrophage cell (KCBL, 40071) from Korea Cell Bank was maintained in Dulbecco's modified Eagle's medium (DMEM; PAA, Austria) containing 10% fetal bovine serum (FBS; GIBCO®), 100 unit/mL of streptomycin, and penicillin (Gibco Laboratories) at 37° C. with 5% CO2. Raw 264.7 cells were seeded into a 96-well plate at a density of 1×10^6 cells/mL and incubated overnight.
[…] After 30 min incubation of cells with the peptide 50 μL of LPS (to a final concentration of 1 μg/mL) was added, and cells were incubated for additional 24 hr. The experimental sample with the induction of inflammatory response was treated with 1 μg/mL mL lipopolysaccharide (LPS; SIGMA-ALDRICH®, USA) and control sample was treated with phosphate buffered saline (PBS; pH 7.2). The supernatant samples from each condition was collected in eppendorf tubes and subjected to further analysis.
The level of nitric oxide (NO) was measured in Raw 264.7 cell (1×10^6 cell/ml) using Griess reagent system (PROMEGA CORPORATION®, USA). Culture medium of 50 μl was added to a 96-well plate and Griess reagent I (NED) solution and Griess reagent II (Sulfanilamide solution) are added in the same amount. After 10 min incubation of cells with the reagents, the optical density at 540 nm was measured within 30 min using a microplate reader (MOLECULAR DEVICES®, USA). The concentration of NO was calculated by using a standard curve (0˜100 μM) of sodium nitrite.

neural stem cells = assay: Co-treatment amyloid-β and PEP-1: cell death (LDH assay); format: cell-based, rat; settings: 20 μM amyloid-β protein, co-treated 48 hours
Protocol: To determine whether PEP 1 has the effect of suppressing the neurotoxicity caused by amyloid-β protein, 20 μM amyloid-β protein and various concentrations of PEP-1 were co-treated for 48 hours. The cell viability and apoptosis were measured using MMT assay, CCK-8 assay, LDH assay and TUNEL assay, and neural stem cell proliferation by BrdU assay.
(Refer to FIG. 8). LDH assay was carried out for assessment of the degree of cell death as another method, and we confirmed that the increase in cell death by amyloid-β decreased by PEP-1, and efficacy was seen starting at 1 μM concentration (Refer to FIG. 9).

IL10 = assay: qPCR array in THP-1 cells; format: cell-based, human; settings: LPS 10 ng/mL, 4 μM PEP-1, 4 h
Protocol: (§1) THP-1 cells (human monocytic leukemia derived cell line) were purchased from ATCC ([…] TYPE CULTURE COLLECTION®, Manassas, Va., USA) and cultured in RPMI-1640 (LIFE TECHNOLOGIES®, Carlsbad, Calif., USA) medium supplemented with 10% FBS (LIFE TECHNOLOGIES®), 1% penicillin/streptomycin (LIFE TECHNOLOGIES®), and 0.05 mM 2-mercaptoethanol (SIGMA-ALDRICH®, St. Louis, Mo., USA) at 37° C. in 5% CO2. THP-1 cells that normally grow in suspension were differentiated into an adherent macrophage-like phenotype in differentiation medium (complete growth medium containing 100 ng/mL phorbol 12-myristate 13-acetate (PMA, SIGMA-ALDRICH®)) for 24 hr. For differentiation, THP-1 cells (3×10^6 cells/plate, ˜95% confluency) were seeded into 10-cm tissue culture plates and incubated in differentiation medium.
(§2) Following differentiation, the macrophage-like THP-1 cells were washed twice using complete growth medium. Then, cells were treated with 10 ng/mL lipopolysaccharide (SIGMA-ALDRICH®) and/or 4 μM PEP-1 for 4 h at 37° C.
(§3) Total RNA was extracted and purified using RNeasy mini kit from QIAGEN® (Valencia, Calif., USA) following manufacturer's protocol. cDNAs were synthesized by reverse transcription using Reverse Transcription System from PROMEGA CORPORATION® (Madison, Wis., USA) according to the manufacturer's protocol.
(§4) Then, cDNA samples from THP-1 cells were used as template for real-time quantitative PCR (qPCR) analysis. For qPCR analysis, RT2 Profiler PCR Array kits were purchased from SABIOSCIENCES®/QIAGEN® (Valencia, Calif. USA). Four different PCR array kits analyzing separate signaling pathways used in the experiment are as follows: human signal transduction pathway finder, human inflammatory cytokines & receptors, human transcription factors, human NF-κB signaling pathway. PCR was performed with SYBR® Green qPCR detection system (QIAGEN®) using a BIO-RAD® (Hercules, Calif., USA) CFX 96 real-time PCR instrument. Thermocycling conditions were: 95° C. for 10 sec; 55° C. for 30 sec; 95° C. for 10 min; 95° C. for 10 sec, 55° C. for 30 sec, and 72° C. for 30 sec for 50 amplification cycles. Data represents the average value from three independent experiments, and % decrease was determined by the target gene expression in LPS treated samples vs. LPS+PEP-1 treated samples. Among 336 genes analyzed, only those showing statistically significant (p<0.05, student's t-test) % decrease were shown in table 7.

GM-CSF = assay: qPCR array in THP-1 cells; format: cell-based, human; settings: LPS 10 ng/mL, 4 μM PEP-1, 4 h
Protocol: as §1, §2, §3, §4

TNFR11B = assay: qPCR array in THP-1 cells; format: cell-based, human; settings: LPS 10 ng/mL, 4 μM PEP-1, 4 h
Protocol: as §1, §2, §3, §4

CCL26/MIP4α = assay: qPCR array in THP-1 cells; format: cell-based, human; settings: LPS 10 ng/mL, 4 μM PEP-1, 4 h
Protocol: as §1, §2, §3, §4

TNFα = assay: qPCR array in THP-1 cells; format: cell-based, human; settings: LPS 10 ng/mL, 4 μM PEP-1, 4 h
Protocol: as §1, §2, §3, §4

ILlRa = assay: qPCR array in THP-1 cells; format: cell-based, human; settings: LPS 10 ng/mL, 4 μM PEP-1, 4 h
Protocol: as §1, §2, §3, §4

BCL10 = assay: qPCR array in THP-1 cells; format: cell-based, human; settings: LPS 10 ng/mL, 4 μM PEP-1, 4 h
Protocol: as §1, §2, §3, §4

IL17C = assay: qPCR array in THP-1 cells; format: cell-based, human; settings: LPS 10 ng/mL, 4 μM PEP-1, 4 h
Protocol: as §1, §2, §3, §4

G-CSF = assay: qPCR array in THP-1 cells; format: cell-based, human; settings: LPS 10 ng/mL, 4 μM PEP-1, 4 h
Protocol: as §1, §2, §3, §4

CCL4/MIP1β = assay: qPCR array in THP-1 cells; format: cell-based, human; settings: LPS 10 ng/mL, 4 μM PEP-1, 4 h
Protocol: as §1, §2, §3, §4

IkBα = assay: qPCR array in THP-1 cells; format: cell-based, human; settings: LPS 10 ng/mL, 4 μM PEP-1, 4 h
Protocol: as §1, §2, §3, §4

[1] = test system: ACSL5 (acyl-coA synthase); assay: qPCR array in THP-1 cells; format: cell-based, human; settings: LPS 10 ng/mL, 4 μM PEP-1, 4 h
Protocol: as §1, §2, §3, §4

[2] = LPS 1 μg/mL, PEP 1 0.5 μg/mL, 24 hr

T1 sequence (P05067 672-713 limits assumed): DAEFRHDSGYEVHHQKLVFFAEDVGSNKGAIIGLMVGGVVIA

For EARPALLTSRLRFIPK [PEP-1], the “aggregation of amyloid-β protein during induction” value (amyloid-β protein; 1 μM amyloid beta protein co-treated with PEP 1 0.1, 1 and 10 μM, FIG. 16A) was “inhibited”, the “amyloid-β protein already induced for aggregation” value (amyloid-β protein; FIG. 16B) was “underwent degradation” and the “Decreased NO Expression Level (%)” value (nitric oxide (NO); [2]) was 65%. The “NO Expression Level of control (%)” value (nitric oxide (NO); [2]) was 35%, the “NO level reduced to % of the control” value (nitric oxide (NO); co-treatment with LPS) was 65% and the “concentration at which efficacy starts (LDH)” value (neural stem cells) was 1 µM. The “increase in cell death by amyloid-β (LDH)” value (neural stem cells) was “decreased”, the “IL10 % Decrease by PEP 1 (LPS + PEP-1/LPS), p < 0.05” value (IL10) was “↓↓32%” and the “GM-CSF % Decrease by PEP 1 (LPS + PEP-1/LPS), p < 0.05” value (GM-CSF) was “↓↓29%”. For the same sequence, the “TNFR11B % Decrease by PEP 1 (LPS + PEP-1/LPS), p < 0.05” value (TNFR11B) was “↓↓↓38%”, the “CCL26/MIP4α % Decrease by PEP 1 (LPS + PEP-1/LPS), p < 0.05” value (CCL26/MIP4α) was “↓↓↓42%” and the “TNFα % Decrease by PEP 1 (LPS + PEP-1/LPS), p < 0.05” value (TNFα) was “↓↓34%”. The “ILlRa % Decrease by PEP 1 (LPS + PEP-1/LPS), p < 0.05” value (ILlRa) was “↓20%”, the “BCL10 % Decrease by PEP 1 (LPS + PEP-1/LPS), p < 0.05” value (BCL10) was “↓↓32%” and the “IL17C % Decrease by PEP 1 (LPS + PEP-1/LPS), p < 0.05” value (IL17C) was “↓↓35%”. The “G-CSF % Decrease by PEP 1 (LPS + PEP-1/LPS), p < 0.05” value (G-CSF) was “↓↓↓48%”, the “CCL4/MIP1β % Decrease by PEP 1 (LPS + PEP-1/LPS), p < 0.05” value (CCL4/MIP1β) was “↓22%” and the “IkBα % Decrease by PEP 1 (LPS + PEP-1/LPS), p < 0.05” value (IkBα) was “↓↓27%”. For the same sequence, the “ACSL5 (acyl-coA synthase) % Decrease by PEP 1 (LPS + PEP-1/LPS), p < 0.05” value [1] was “↓17%”.
